Reference: US7601494B2, “Method of screening candidate compounds for susceptibility to biliary excretion” (The University of North Carolina at Chapel Hill, priority 1999, dated 2009)
“Also recorded” adds a separate entry of the source. Like-named read-outs stand apart in the source and are kept apart here.

What was measured:
[1] = tested on: short-term cultured hepatocytes; assay: Cumulative uptake in 3-hr (short-term) cultured hepatocyte monolayers, standard vs Ca2+-free buffer; type: in vitro ADME, rat; details: for cumulative uptake in standard buffer compared to Ca2+-free buffer: 3-hr cultured hepatocytes
Procedure: Hepatocytes were isolated with a two-step perfusion method. Briefly, rats were anesthetized with ketamine and xylazine (60 and 12mg/kg i.p., respectively) prior to portal vein cannulation. The liver was perfused in situ with oxygenated Ca^2+-free Krebs-Henseleit bicarbonate buffer containing collagenase type 1 (0.5 mg/ml) for 10 min. The hepatic capsule was removed with forceps. The hepatocytes were released by shaking the liver gently in 100 ml DMEM.
The released cells were filtered through a sterile nylon mesh (70-μm). The hepatocyte suspensions were centrifuged at 50 xg for 3 min. The cell pellet was resuspended in 25 ml DMEM and an equal volume of 90% isotonic polyvinylpyrrolidone-coated silica colloid centrifugation medium (pH 7.4) sold under the registered trademark PERCOLL® by Pharmacia, Inc. of Piscataway, N.J. The resulting cell suspension was centrifuged at about 70 to about 150 xg for 5 min. The pellet was resuspended in 50 ml DMEM and the cell suspensions were combined into one tube followed by centrifugation at 50 xg for 3 min. Hepatocyte viability was determined by trypan blue exclusion. Only those hepatocyte preparations with viability greater than 90% were utilized for further studies.
Hepatocyte suspensions were prepared with DMEM containing 5% fetal calf serum, 1 μM dexamethasone and 4 mg/L insulin. Hepatocyte suspensions were added to the precoated dishes at a density of about 2-3×10^6 cells/60-mm dish. Approximately 1 hr after plating the cells, the medium was aspirated and 3-ml fresh DMEM was added. For transport studies, hepatocytes that had been seeded for 3-5 hr without collagen overlay were defined as 3-hr or short-term cultured hepatocytes.
(§1) Hepatocytes cultured in a collagen-sandwich configuration were incubated in 3 ml standard buffer or Ca^2+-free buffer at 37° C. for 10 min. After removing the incubation buffer, uptake was initiated by addition of 3 ml standard buffer containing substrate to each dish. After incubation for designated times, cumulative uptake was terminated by aspirating the incubation solution and rinsing 4 times with 3 ml ice-cold standard buffer to remove extracellular substrate. After washing, 2 ml of 1% Triton X-100 solution was added to culture dishes, and the cells were lysed by shaking the dish on a shaker for 20 min at room temperature. An aliquot (1 ml) of lysate was analyzed by liquid scintillation spectrometry. Bio-Rad DC Protein Assay Kit (Bio-Rad Laboratories, Hercules, Calif.) was used to determine the protein concentration in the culture extracts using bovine serum albumin as standard. […] All values for substrate uptake into cell monolayers were corrected for nonspecific binding to the collagen by subtracting the substrate uptake determined in the appropriate control dishes in the absence of cells as described previously.
(§2) Uptake data were normalized to the protein content and expressed as mean±SD from 3-4 separate preparations of hepatocytes. Statistical differences between mean values for the 10-min cumulative substrate uptake in the presence and absence of Ca^2+ were determined by the use of the well-known Student's t-test. A P value of <0.05 was considered significant.

[2] = tested on: sandwich-cultured hepatocytes; assay: Cumulative uptake, Biliary Excretion Index and in vitro biliary clearance in 96-hr sandwich-cultured hepatocytes; type: in vitro ADME, rat; details: for cumulative uptake in standard buffer compared to Ca2+-free buffer: 96-hr cultured hepatocytes; for Biliary Excretion Index: Equation 3
Procedure: To prepare sandwich-cultured hepatocytes, neutralized collagen solution (0.1 ml, about 1.5 to about 3.0 mg/ml, pH 7.4) was added to the monolayers 24 hr after the cells were seeded. […] Medium was changed on a daily basis until the fourth day after the cells were seeded. These hepatocytes were referred to as 96-hr or long-term cultured hepatocytes.
as §1, §2
Biliary excretion of substrates in the monolayers was quantitatively assessed by the Biliary Excretion Index based on Equation 3:
[formula] where Uptakestandard and Uptake Ca^2+-free represent the cumulative uptake of substrate over a 10-min interval in the hepatocyte monolayers pre-incubated in standard buffer and in Ca^2+-free buffer, respectively.
Biliary clearance in the sandwich-cultured hepatocytes, ClB(culture) (ml/min/kg per body weight), was calculated according to Equation 4:
[formula] where Timeincubation was 10 min and Concentrationmedium represented the initial substrate concentration in the incubation medium. In some embodiments, a biliary clearance value can be calculated as the ratio of the mass in the bile canaliculi and the area under the curve (AUC) in culture medium, wherein the AUC represents the integral of candidate compound (e.g. xenobiotic concentration) in the medium from time 0 to time T (time can be measure in any desired units, and is usually measured in minutes). Indeed, the term AUC can refer to the following equation: […]

[3] = cited from earlier work; for percentage of the dose excreted in rat bile: i.v. administration, in 1 hr, unchanged drug; for in vivo biliary clearance: rat, literature values
Mrp2 = assay: Immunoblot analysis of Mrp2 expression in siRNA-treated SCRH; type: cell-based, rat; details: 2 μg siRNA per well, 48 hr; for reduction in endogenous Mrp2 expression: vs siFL or non-transfected SCRH, average
Procedure: (§3) HepG2 cells were maintained in Dulbecco's modified Eagle's medium/F-12 plus 10% FBS. Rat hepatocytes were isolated from male Wistar rats (220-300g) by in situ collagenase perfusion (Annaert et al., Drug Metab Dispos 29:1277-1283, 2001). Cells were seeded at a density of 1.5×10^6 cells per well onto polystyrene 6-well plates pre-coated with rat tail type I collagen; a top layer of gelled collagen was overlaid 24 hr after plating. Rat hepatocyte cultures were maintained in Dulbecco's modified Eagle's medium supplemented with 0.1 μM dexamethasone and 0.1% ITS culture supplement (6.25 mg/mL insulin, 6.25 mg/mL transferrin, 6.25 μg/mL selenous acid, 5.35 mg/mL linoleic acid, and […]). Medium was changed every 24 hr.
(§4) HepG2 cells were seeded at a density of 2×10^5 cells per well onto 12-well plates 24 hr before transfection. A mixture of 100 ng firefly luciferase expression plasmid (PGL3-FL) and 100 ng Renilla luciferase expression plasmid (PRL-TK) and various amounts of firefly luciferase siRNA were used per well. Transfections of SCRH were performed at 20 hr after plating, unless specifically indicated. siRNA (2 μg unless specified) was used per well in 6-well plates. siRNA and DNA were formulated for transfection using […]™ transfection reaction kit (QIAGEN Inc. Valencia, Calif. USA). Briefly, siRNA was condensed in Enhancer EC at a ratio of 1:2 (μg of total RNA and/or DNA : μl of Enhancer), and formulated with TransMessenger at a ratio of 1:4 (μg of RNA and /or DNA: μl of TransMessenger) and then incubated with cells. For transfections of HepG2 cells, medium was changed after an overnight incubation with siRNA. For transfections of SCRH, cells were incubated with siRNA for 4 hr and then were overlaid with collagen. siRNA delivery into hepatocytes was more efficient before overlay of the top collagen layer. The effect of transfection was examined 48 hr later.
(§5) Cells were harvested 48 hr post transfection and lysed in 1% SDS, 1 mM EDTA plus COMPLETE™ protease inhibitor cocktail (Roche Diagnostics, Mannheim, Germany). The protein concentration of the clear cell lysate was determined with the BCA Protein Assay Reagent Kit (Pierce Biotech, Inc. Rockford, Ill.). […] of total protein per lane was resolved by electrophoresis on NuPAGE 4-12% Bis-Tris Gel (Invitrogen Life Technology, Carlsbad, Calif. USA) and were transferred onto polyvinylidone difluoride membranes. The following antibodies were used to probe the membranes: anti-Mrp2 (M2111-6, Alexis Biochemicals, San Diego, Calif. USA); anti-Mrp3 (kind gift from Dr. Yuichi Sugiyama); anti-Radixin (Chemicon International, Inc. Temecula, Calif. USA), anti-β-actin (MAB1501, Chemicon).

Mrp3 = assay: Immunoblot analysis of Mrp3 expression in siRNA-treated SCRH; type: cell-based, rat; details: immunoblot
Procedure: as §3, §4, §5

radixin = assay: Immunoblot analysis of radixin expression in siRNA-treated SCRH; type: cell-based, rat
Procedure: as §3
as §4, with “For transfections of SCRH, cells were incubated with siRNA for 4 hr and then were overlaid with collagen. siRNA delivery into hepatocytes was more efficient before overlay of the top collagen layer. The effect of transfection was examined 48 hr later.” left out
Cells were harvested 48 hr post transfection and lysed in 1% SDS, 1 mM EDTA plus COMPLETE™ protease inhibitor cocktail (Roche Diagnostics, Mannheim, Germany). The protein concentration of the clear cell lysate was determined with the BCA Protein Assay Reagent Kit (Pierce Biotech, Inc. Rockford, Ill.). […]

in vivo = details: rat
Procedure: In vivo biliary clearance, ClB (ml/min/kg body weight), was calculated according to Equation 1:
[formula] where Amountbile(O-T) represents the amount of parent drug recovered in bile from 0 to time T when most drug was eliminated from the systemic circulation, and AUCO-T represents the area under the plasma concentration-time curve from 0 to time T (in minutes).
The in vivo intrinsic biliary clearance (ClBin, ml/min/kg body weight) was estimated according to Equation 2 based on the well-stirred model of hepatic disposition assuming biliary excretion is the predominant elimination pathway (Pang et al., J. Pharmacokinet. Biopharm. 5:625-653, 1977).
[formula] where Q represents rat hepatic plasma/blood flow, 40-70 ml/min/kg of body weight {(blood flow×(1-hematocrit)}; Pollack et al., J. Pharmacol. Exp. Ther. 18:197-202, (1989), and ClB represents biliary clearance for model compounds reported in the literature or calculated from Equation 1.
The five model substrates representing a diverse spectrum of biliary excretion properties were selected to examine the relationship between the percentage of the dose excreted in bile in vivo in rats and the Biliary Excretion Index in sandwich-cultured hepatocytes. Information regarding the percentage of the dose excreted in rat bile after i.v. administration was obtained from the literature.

[4] = 96-hr sandwich-cultured hepatocytes, 10-min cumulative uptake

| Compound | cumulative uptake in standard buffer compared to Ca2+-free buffer [1] | cumulative uptake in standard buffer compared to Ca2+-free buffer [2] | percentage of the dose excreted in rat bile [3] | reduction in endogenous Mrp2 expression (Mrp2) [%] | expression level of Mrp3 (Mrp3) [% non-transfected control] | radixin expression level (radixin) [% non-transfected control] | other results |
| --- | --- | --- | --- | --- | --- | --- | --- |
| O=C(O)c1ccccc1O [salicylate] | not significantly different | no effect | negligible |  |  |  | Biliary Excretion Index [2, 4]: approximately zero; also recorded: negligible; in vivo biliary clearance [3]: ~0 ml/min per kg body weight |
| siMrp2AB3: siRNA targeting rat Mrp2, GGCAGUAGGGUGGUGGUCCAU (SEQ ID NO: 5) (listed as RNA, chemistry not given here) |  |  |  | 26±18 | 86±11 | 103±7 |  |
| siMrp2AB2: siRNA targeting rat Mrp2, GGCUAGGAAGCAGUACACCAU (SEQ ID NO: 4) (listed as RNA, chemistry not given here) |  |  |  | 40±20 | 96±15 | 100±8 |  |
| siMrp2AB1: siRNA targeting rat Mrp2, GGCUAUAUCUGUGCAAUCCUA (SEQ ID NO: 3), nucleotides 1158-1178 of Mrp2 cDNA (listed as RNA, chemistry not given here) |  |  |  | 50 | 89±11 | 95±17 | maximum reduction in endogenous Mrp2 expression (Mrp2): 79% |
| inulin |  |  | negligible |  |  |  | cumulative uptake (of initial added substrate) ([1]; short-term cultured hepatocytes, all incubation times, 1 μM): less than 0.01%; Biliary Excretion Index [2, 4]: approximately zero; also recorded: negligible; cumulative uptake (of initial added substrate) ([2]; long-term cultured hepatocytes, all incubation times, 1 μM): less than 0.01% |
| CN(Cc1cnc2nc(N)nc(N)c2n1)c1ccc(C(=O)N[C@@H](CCC(=O)O)C(=O)O)cc1 [methotrexate] | not significantly different | significantly higher | 50-60% |  |  |  | in vitro biliary clearance ([2]; 96-hr sandwich-cultured hepatocytes, 10-min cumulative uptake, Equation 4): 4.1 ± 1.0 mL/min/kg; clearance (in vivo; in vivo intrinsic biliary clearance): ~17.3 mL/min/kg; percentage of the dose excreted in rat bile ([3]; listed as Methotrexate): approximately 60%; in vivo biliary clearance [3]: 12.1 ml/min per kg body weight |
| CC1(C)SSC(C)(C)[C@@H](NC(=O)[C@@H](N)Cc2ccc(O)cc2)C(=O)NCC(=O)N[C@@H](Cc2ccccc2)C(=O)N[C@H]1C(=O)O [[D-pen^2,5]enkephalin] | not significantly different | significantly higher |  |  |  |  | clearance (in vivo; in vivo biliary clearance, calculated by Equation 1 from data of Chen and Pollack): 18.5 mL/min/kg; clearance (in vivo; in vivo intrinsic biliary clearance, calculated from Equation 2 (well-stirred model)): ~34.4 mL/min/kg |
